# Values quoted from earlier work in patent US20200236944A1, “DIURON-CONTAINING FRUIT THINNING AGENT” (ADAMA AGAN LTD., priority 2017, published 2020).
# What was measured:
# orange trees = conditions: 2500 ppm diuron
# peach leaves = conditions: 100 ppm diuron
smiles,measurement,setting,value
"CN(C)C(=O)Nc1ccc(Cl)c(Cl)c1 [diuron, 3-(3,4-dichlorophenyl)-1,1-dimethylurea]",Fruiting of orange trees,orange trees,partially prevent the fruiting
same,Photosynthesis rate for peaches,peach leaves,long-lasting and thus undesirably low
